Assay [1] addresses CDC7 (Homo sapiens, UniProt O00311). In words: CDC7 inhibition, biochemical chemiluminescence assay (Kinase Glo, IC50 determination). On the procedure:
Characterization of CDC7 Inhibition in a Biochemical Chemiluminesence Assay (IC50 Determination):
The IC50 evaluation of compounds against the CDC7 enzyme was performed in a Chemiluminesence assay utilizing a Greiner 384-well white binding plate format. […] Upon addition of 10 μL of CDC-7 (GB) to the designated well plates and subsequent incubation for ten minutes at ambient temperature, 10 μL of ATP mix in Tris Base was added. Following an incubation period of 90 minutes at ambient temperature (24-27° C.), 20 μL of Kinase Glo (Promega) was added to measure kinase activity by quantitating the amount of ATP remaining in solution. The luminescence was measured following a Luciferase Protocol on either EnVision or Victor plate readers.
(Kinase-Glo reads ATP consumption through a luciferase reaction.)

The target in assay [2] is CK2 (Homo sapiens, UniProt P68400). In words: CK2 inhibition, biochemical chemiluminescence holoenzyme assay (Kinase Glo, IC50 determination). Particulars: Table 1 activity class; symbol given only if active; read-out: CK2 IC50 (Activity C). The method, boiled down: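 Holoenzyme CK2 assay; compounds pre-incubated with substrate and enzyme, then reacted 150 min at 24-27° C. Remaining ATP measured as luminescence with Kinase Glo, and IC50 derived from the signal.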
CK2, sequence (P68400 whole entry): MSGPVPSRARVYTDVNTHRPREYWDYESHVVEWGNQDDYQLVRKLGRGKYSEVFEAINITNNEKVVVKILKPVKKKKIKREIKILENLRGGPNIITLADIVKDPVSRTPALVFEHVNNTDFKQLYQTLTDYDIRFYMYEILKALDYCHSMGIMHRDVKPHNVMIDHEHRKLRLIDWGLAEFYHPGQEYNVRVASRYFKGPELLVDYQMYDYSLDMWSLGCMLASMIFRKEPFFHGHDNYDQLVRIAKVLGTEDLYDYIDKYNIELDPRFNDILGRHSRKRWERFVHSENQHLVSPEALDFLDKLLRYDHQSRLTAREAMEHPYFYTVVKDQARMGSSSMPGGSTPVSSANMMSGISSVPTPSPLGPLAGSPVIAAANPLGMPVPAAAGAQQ
CK2, sequence (P67870 whole entry partner): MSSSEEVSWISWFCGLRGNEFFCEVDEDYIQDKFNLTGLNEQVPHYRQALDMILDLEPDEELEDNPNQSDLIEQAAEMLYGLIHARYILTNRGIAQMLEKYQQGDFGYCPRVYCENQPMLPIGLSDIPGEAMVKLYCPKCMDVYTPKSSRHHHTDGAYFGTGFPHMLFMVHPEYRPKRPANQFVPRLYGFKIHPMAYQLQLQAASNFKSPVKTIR

In assay [3] the target is PIM (PIM-1, PIM-2, and/or PIM-3). In words: PIM-1, PIM-2 and PIM-3 inhibition, biochemical chemiluminescence assays (Kinase Glo, IC50 determination). The note with it: Table 1 activity class; PIM refers to PIM-1, PIM-2, and/or PIM-3; read-out: PIM IC50 (Activity B).
Setting [4] is: Table 1 activity class, symbol given only if active, read-out: CDC7 IC50 (Activity A).
Where [5] appears, read: compounds in Table 1, read-out: CDC7 IC50 value.

Where two headings read alike, the source gives them in different places.

CDC7, sequence (O00311 whole entry): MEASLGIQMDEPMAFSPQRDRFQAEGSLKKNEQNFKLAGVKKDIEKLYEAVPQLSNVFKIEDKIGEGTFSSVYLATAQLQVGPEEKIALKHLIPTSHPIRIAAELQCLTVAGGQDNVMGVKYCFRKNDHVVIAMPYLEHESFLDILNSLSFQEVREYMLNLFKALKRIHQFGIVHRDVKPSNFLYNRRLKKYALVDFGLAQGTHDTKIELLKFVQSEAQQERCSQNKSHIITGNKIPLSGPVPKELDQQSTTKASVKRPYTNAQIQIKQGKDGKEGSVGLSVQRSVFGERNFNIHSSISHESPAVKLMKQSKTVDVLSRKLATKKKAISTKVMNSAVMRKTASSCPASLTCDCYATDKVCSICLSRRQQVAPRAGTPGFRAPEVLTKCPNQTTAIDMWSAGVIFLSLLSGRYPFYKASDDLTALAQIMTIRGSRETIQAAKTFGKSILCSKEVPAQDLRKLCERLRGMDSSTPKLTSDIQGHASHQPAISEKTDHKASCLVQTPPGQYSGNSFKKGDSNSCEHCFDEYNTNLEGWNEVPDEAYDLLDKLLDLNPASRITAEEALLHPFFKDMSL
CDC7, sequence (Q9UBU7 whole entry partner): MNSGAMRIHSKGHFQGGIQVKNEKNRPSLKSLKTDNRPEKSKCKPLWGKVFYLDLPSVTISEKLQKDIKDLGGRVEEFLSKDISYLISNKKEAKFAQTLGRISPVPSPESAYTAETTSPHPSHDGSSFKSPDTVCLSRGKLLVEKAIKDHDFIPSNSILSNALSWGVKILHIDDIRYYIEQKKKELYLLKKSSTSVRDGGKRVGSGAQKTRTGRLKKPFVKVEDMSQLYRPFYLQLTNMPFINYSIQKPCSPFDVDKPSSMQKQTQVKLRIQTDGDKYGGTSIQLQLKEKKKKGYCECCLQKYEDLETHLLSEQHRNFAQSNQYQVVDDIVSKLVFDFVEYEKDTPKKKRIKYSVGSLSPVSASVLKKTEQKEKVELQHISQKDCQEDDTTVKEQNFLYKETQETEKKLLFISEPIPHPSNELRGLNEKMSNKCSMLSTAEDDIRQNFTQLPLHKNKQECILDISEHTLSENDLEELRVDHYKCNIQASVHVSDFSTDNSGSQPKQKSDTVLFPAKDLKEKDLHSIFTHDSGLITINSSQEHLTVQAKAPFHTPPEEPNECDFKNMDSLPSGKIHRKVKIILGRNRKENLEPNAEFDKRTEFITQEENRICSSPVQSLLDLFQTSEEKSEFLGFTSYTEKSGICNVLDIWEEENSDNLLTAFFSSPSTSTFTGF

Take `O=c1[nH]c(CNc2cccnc2)nc2c1oc1ccc(Br)cc12` [Compound 13, 8-bromo-2-[(pyridin-3-ylamino)methyl][1]benzofuro[3,2-d]pyrimidin-4(3H)-one]: the IC50 in assay [1] (setting [4]), in assay [2] and in assay [3] was under 10 µM each time.
As for `CN(C)C(=O)CN1CCN(Cc2nc3c(oc4ccc(Br)cc43)c(=O)[nH]2)CC1` [Compound 25, 2-{4-[(8-bromo-4-oxo-3,4-dihydro[1]benzofuro[3,2-d]pyrimidin-2-yl)methyl]piperazin-1-yl}-N,N-dimethylacetamide], the 50% inhibitory concentration (IC50) in assay [1] (setting [4]), in assay [2] and in assay [3] was under 10 µM in each case.
With `O=c1[nH]c(-c2ccc([N+](=O)[O-])cc2Cl)nc2c1oc1ccc(Br)cc12` [Compound 33, 8-Bromo-2-(2-chloro-4-nitrophenyl)[1]benzofuro[3,2-d]pyrimidin-4(3H)-one], the IC50 in assay [1] (setting [4]), in assay [2] and in assay [3] was under 10 µM throughout.
Consider `Nc1ccc(-c2nc3c(oc4ccc(Br)cc43)c(=O)[nH]2)c(Cl)c1` [Compound 34, 2-(4-Amino-2-chlorophenyl)-8-bromo[1]benzofuro[3,2-d]pyrimidin-4(3H)-one], for which the IC50 in assay [1] (setting [4]), in assay [2] and in assay [3] was under 10 µM in each case.
Take `O=c1[nH]c(-c2ccccc2I)nc2c1oc1ccc(Br)cc12` [Compound 40, 8-bromo-2-(2-iodophenyl)[1]benzofuro[3,2-d]pyrimidin-4(3H)-one]: the IC50 in assay [1] (setting [4]), in assay [2] and in assay [3] was under 10 µM in each case.
As for `O=c1[nH]c(-c2ccncc2Br)nc2c1oc1ccc(Br)cc12` [Compound 43, 8-bromo-2-(3-bromopyridin-4-yl)[1]benzofuro[3,2-d]pyrimidin-4(3H)-one], the IC50 in assay [1] (setting [4]), in assay [2] and in assay [3] was under 10 µM each time.
With `O=c1[nH]c(-c2ccccc2-n2ccnc2)nc2c1oc1ccc(Br)cc12` [Compound 48, 8-bromo-2-[2-(1H-imidazol-1-yl)phenyl][1]benzofuro[3,2-d]pyrimidin-4(3H)-one], the half-inhibitory concentration (IC50) in assay [1] (setting [4]), in assay [2] and in assay [3] was under 10 µM each time.
With `CC(C)(N)c1nc2c(oc3ccc(Cl)cc32)c(=O)[nH]1` [Compound 49, 2-(1-Amino-1-methylethyl)-8-chloro[1]benzofuro[3,2-d]pyrimidin-4(3H)-one], the IC50 (in general, the point on the concentration scale where inhibition reaches its midpoint) in assay [1] (setting [4]) was under 10 µM; in assay [1] (setting [5]), under 0.1 µM; in assay [2], under 10 µM; in assay [3], under 10 µM.
Take `Cc1ccccc1-c1nc2c(oc3ccc(Br)cc32)c(=O)[nH]1` [Compound 60, 8-bromo-2-(2-methylphenyl)[1]benzofuro[3,2-d]pyrimidin-4(3H)-one]: the IC50 in assay [1] (setting [4]), in assay [2] and in assay [3] was under 10 µM in each case.
In the case of `O=c1[nH]c(-c2nccs2)nc2c1oc1ccc(Br)cc12` [Compound 86, 8-bromo-2-(1,3-thiazol-2-yl)[1]benzofuro[3,2-d]pyrimidin-4(3H)-one], the IC50 in assay [1] (setting [4]), in assay [2] and in assay [3] was under 10 µM each time.
For the compound `Cc1nccn1Cc1nc2c(oc3ccc(Br)cc32)c(=O)[nH]1` [Compound 100, 8-bromo-2-[(2-methyl-1H-imidazol-1-yl)methyl][1]benzofuro[3,2-d]pyrimidin-4(3H)-one], the IC50 in assay [1] (setting [4]), in assay [2] and in assay [3] was under 10 µM each time.
Regarding `O=C(O)C1CCN(Cc2nc3c(oc4ccc(Br)cc43)c(=O)[nH]2)C1` (centres unmarked) [Compound 103, 1-[(8-bromo-4-oxo-3,4-dihydro[1]benzofuro[3,2-d]pyrimidin-2-yl)methyl]pyrrolidine-3-carboxylic acid], the IC50 in assay [1] (setting [4]) is under 10 µM; in assay [1] (setting [5]) it was under 0.1 µM; in assay [2] it was under 10 µM; in assay [3], under 10 µM.
Consider `O=c1[nH]c(-c2c(Cl)cncc2Cl)nc2c1oc1ccc(Br)cc12` [Compound 107, 8-bromo-2-(3,5-dichloropyridin-4-yl)[1]benzofuro[3,2-d]pyrimidin-4(3H)-one], for which the IC50 in assay [1] (setting [4]), in assay [2] and in assay [3] was under 10 µM in each case.
Regarding `O=c1[nH]c(CN2CCC(NCC3CCNCC3)C2)nc2c1oc1ccc(Br)cc12` (centres unmarked) [Compound 110, 8-bromo-2-({3-[(piperidin-4-ylmethyl)amino]pyrrolidin-1-yl}methyl)[1]benzofuro[3,2-d]pyrimidin-4(3H)-one], the IC50 in assay [1] (setting [4]), in assay [2] and in assay [3] was under 10 µM throughout.
Regarding `CN1CCN(c2ccc(CNCCc3nc4c(oc5ccc(Br)cc54)c(=O)[nH]3)cc2)CC1` [Compound 111, 8-bromo-2-[2-({[4-(4-methylpiperazin-1-yl)phenyl]methyl}amino)ethyl][1]benzofuro[3,2-d]pyrimidin-4(3H)-one], the IC50 in assay [1] (setting [4]), in assay [2] and in assay [3] was under 10 µM in each case.
As for `O=c1[nH]c(-c2ccncc2Cl)nc2c1oc1ccc(Br)cc12` [Compound 112, 8-bromo-2-(3-chloropyridin-4-yl)[1]benzofuro[3,2-d]pyrimidin-4(3H)-one], the concentration for half-maximal inhibition (IC50) in assay [1] (setting [4]), in assay [2] and in assay [3] was under 10 µM throughout.
On to `O=c1[nH]c(CN2CCN(CCn3ccnc3)CC2)nc2c1oc1ccc(Br)cc12` [Compound 113, 8-bromo-2-({4-[2-(1H-imidazol-1-yl)ethyl]piperazin-1-yl}methyl)[1]benzofuro[3,2-d]pyrimidin-4(3H)-one], for which the IC50 in assay [1] (setting [4]), in assay [2] and in assay [3] was under 10 µM each time.
Turning to `O=c1[nH]c(CN2CCC(F)(F)CC2)nc2c1oc1ccc(Br)cc12` [Compound 114, 8-bromo-2-[(4,4-difluoropiperidin-1-yl)methyl][1]benzofuro[3,2-d]pyrimidin-4(3H)-one], the IC50 in assay [1] (setting [4]), in assay [2] and in assay [3] was under 10 µM each time.
Turning to `CN1CCN(c2nc3c(oc4ccc(Br)cc43)c(=O)[nH]2)CC1` [Compound 115, 8-bromo-2-(4-methylpiperazin-1-yl)[1]benzofuro[3,2-d]pyrimidin-4(3H)-one], the IC50 in assay [1] (setting [4]), in assay [2] and in assay [3] was under 10 µM in each case.
Take `O=c1[nH]c(-c2ccc(Br)cc2Cl)nc2c1oc1ccc(Br)cc12` [Compound 116, 8-bromo-2-(4-bromo-2-chlorophenyl)[1]benzofuro[3,2-d]pyrimidin-4(3H)-one]: the IC50 in assay [1] (setting [4]), in assay [2] and in assay [3] was under 10 µM each time.
For the compound `CNC1CCN(Cc2nc3c(oc4ccc(Br)cc43)c(=O)[nH]2)C1` (centres unmarked) [Compound 118, 8-bromo-2-{[3-(methylamino)pyrrolidin-1-yl]methyl}[1]benzofuro[3,2-d]pyrimidin-4(3H)-one], the IC50 in assay [1] (setting [4]), in assay [2] and in assay [3] was under 10 µM each time.

(Values after patent US20090247559A1 (Exelixis, Inc., priority 2007, published 2009).)
